Experimental data published in patent publication EP4029501A1, “COMBINATION OF POLYAROMATIC UREA DERIVATIVES AND GLUCOCORTICOID OR HDAC INHIBITOR FOR THE TREATMENT OF DISEASES OR CONDITIONS ASSOCIATED WITH MUSCLE CELLS AND/OR SATELLITE CELLS” (Anagenesis Biotechnologies, priority 2021, dated 2022).

System: muscle progenitors derived from DMD hiPSC
Experiment: Myotube assay: total myotube area per well (alpha-actinin staining)
Type: cell-based, human
Details: Homo sapiens, Myotube, 72 h, DMD or WT cell source not given; for Emax: efficacy, MA = normalized Myotube Area, 3 days incubation; for EC50: myogenic activity, half-maximal generation of myotubes, 10 points dose-response 1.5 nM to 30 µM, 3 days
Procedure: An in vitro assay for assessing the efficacy of compounds for use in treating, ameliorating, delaying, curing and/or preventing a disease or condition associated with muscle cells and/or satellite cells is described in example 78. Herein, the generation of myotubes and satellite cells after adding a compound to a myotube assay workflow is assessed. Said myotube assay workflow is derived from wild-type or DMD human induced pluripotent stem cells (WT hiPSC or DMD hiPSC). Before the addition of said compound, the assay comprises satellite-like cells, but no significant amount of myotubes.
The efficacy of said compound for use in treating, ameliorating, delaying, curing and/or preventing a disease or condition associated with muscle cells and/or satellite cells is positively correlated with the generation of myotubes (i.e. the increase of the area occupied by myotubes on the assay) and/or satellite cells (i.e. the increase of the number of satellite cells) in the assay after adding said compound. The generation of myotubes by the addition of said compound is expressed as the EC50 value, the concentration of said compound that corresponds with the half-maximal generation of myotubes, and the MA (normalized myotube area) value, the normalized area occupied by generated myotubes on the assay. […] Since muscle cells are formed from myotubes during myogenesis, the generation of myotubes in the assay is a good indicator of the ability of said compound to induce the formation of functional muscle cells in vivo. The number of satellite cells is measured as the percentage of Pax7 positive cells, relative to the total number of cells in the assay, as shown in Figure 3. The percentage of Pax7 is a good indicator of the ability of said compound to induce the formation of satellite cells which are able to play a role in muscle repair and regeneration in vivo.
DMD human induced pluripotent stem cells (hereafter "DMD hiPSC"), generated from the NCRM-1 hiPSC WT cell line by gene editing, or WT human induced pluripotent stem cells (hereafter "WT hiPSC"), being NCRM-1 hiPSC wt cell line, have been differentiated according to Chal et al. 2015, 2016, to produce muscle progenitors (hereafter "hMP"). The hMP population contains satellite-like cells (i.e Pax7-positive cells) and satellite cells' progenies (i.e. Myogenin-positive cells).
Figure 1 provides an example of a Myotube assay workflow. At day 0, hMP are thawed and 3.1 million cells are plated into a T75-flask coated with hESC-qualified Matrigel™ (Corning) in SkGM proliferating medium (PromoCells), supplemented with 5 µM Y-27632 (Tocris Bioscience). On day 2, SkGM proliferating medium is refreshed. On day 4, hMP are harvested and transferred into a 384-well plate coated with collagen type I at a density of 3500 cells/well in a DMEM-based medium, containing 5% of knockout serum replacement (Gibco), 1% PenStrep (Gibco), 1% MEM NEAA (Gibco) and 0.1 mM 2-mercaptoethanol (Gibco) (hereafter "K5 medium") and 5 µM Y-27632. Compounds to be tested are then added in the medium and incubated for 3 days at 37°C. On day 7, cells are fixed and immunostained. For example, myotubes (alpha-actinin staining) and satellite-like (Pax7 staining) cells can be analyzed for total myotube area per well or Pax7-positive cell quantification.
DMD hMP were put in the Myotube assay according to the workflow described in Example 2.1. In particular, compound (i) was added at concentrations ranging from 1.5 nM to 30 µM, starting from day 4. hMP were cultivated for three more days in presence of compound (i), then fixed and analyzed for quantification of total myotube area per well. Duplicates of each condition were averaged.

| Structure (SMILES) | EC50 [nM] | Emax [%] |
| --- | --- | --- |
| CC(C)(C)c1cc(NC(=O)Nc2ccc(Oc3ccnc4[nH]c(=O)cnc34)cc2F)n(CCN2CCOCC2)n1 [(k), 1-(3-(tert-butyl)-1-(2-morpholinoethyl)-1 H-pyrazol-5-yl)-3-(2-fluoro-4-((3-oxo-3,4-dihydropyrido[2,3-b]pyrazin-8-yl)oxy)phenyl)urea] | 1000 to 5000 | 50 to 75 |
| CC(C)(C)c1cc(NC(=O)Nc2ccc(Oc3ccnc4[nH]c(=O)cnc34)cc2F)[nH]n1 [(h), 1-(3-(tert-butyl)-1H-pyrazol-5-yl)-3-(2-fluoro-4-((3-oxo-3,4-dihydropyrido[2,3-b]pyrazin-8-yl)oxy)phenyl)urea] | ≥ 5000 | 25 to 50 |
| CSc1cc(Oc2ccnc3[nH]c(=O)cnc23)ccc1NC(=O)Nc1cc(C(C)(C)C)nn1-c1ccc(OCCN2CCCCC2)cc1 [(ce), 1-(3-(tert-butyl)-1-(4-(2-(piperidin-1-yl)ethoxy)phenyl)-1H-pyrazol-5-yl)-3-(2-(methylthio)-4-((3-oxo-3,4-dihydropyrido[2,3-b]pyrazin-8-yl)oxy)phenyl)urea] | < 500 | ≥ 75 |
| CC(C)(C)c1cnc(NC(=O)Nc2ccc(Oc3ccnc4[nH]c(=O)cnc34)c3ccccc23)s1 [(ba), 1-(5-(tert-butyl)thiazol-2-yl)-3-(4-((3-oxo-3,4-dihydropyrido[2,3-b]pyrazin-8-yl)oxy)naphthalen-1-yl)urea] | < 500 | ≥ 75 |
| CSc1cc(Oc2ccnc3[nH]c(=O)ccc23)ccc1NC(=O)Nc1cc(C(C)(C)C)nn1-c1ccccc1 [(do), 1-(3-(tert-butyl)-1-phenyl-1H-pyrazol-5-yl)-3-(2-(methylthio)-4-((7-oxo-7,8-dihydro-1,8-naphthyridin-4-yl)oxy)phenyl)urea] | < 500 | ≥ 75 |
| CC(C)(C)c1cc(NC(=O)Nc2ccc(Oc3ccnc4[nH]c(=O)cnc34)cc2F)n(-c2ccc3ncccc3c2)n1 [(n), 1-(3-(tert-butyl)-1-(quinolin-6-yl)-1 H-pyrazol-5-yl)-3-(2-fluoro-4-((3-oxo-3,4-dihydropyrido[2,3-b]pyrazin-8-yl)oxy)phenyl)urea] | < 500 | ≥ 75 |
| CC(C)(C)c1cc(NC(=O)Nc2cccc(Oc3ccnc4[nH]c(=O)cnc34)c2F)n(-c2ccccc2)n1 [(cw), 1-(3-(tert-butyl)-1-phenyl-1 H-pyrazol-5-yl)-3-(2-fluoro-3-((3-oxo-3,4-dihydropyrido[2,3-b]pyrazin-8-yl)oxy)phenyl)urea] | ≥ 5000 | ≥ 75 |
| CC1(c2cc(NC(=O)Nc3ccc(Oc4ccnc5[nH]c(=O)cnc45)cc3F)n(-c3ccccc3)n2)COC1 [(f), 1-(2-fluoro-4-((3-oxo-3,4-dihydropyrido[2,3-b]pyrazin-8-yl)oxy)phenyl)-3-(3-(3-methyloxetan-3-yl)-1-phenyl-1 H-pyrazol-5-yl)urea] | ≥ 5000 | 50 to 75 |
| CSc1cc(Oc2ccnc3c2CCC(=O)N3)ccc1NC(=O)Nc1cc(C(C)(C)C)nn1-c1cccc(Cl)c1 [(bz), 1-(3-(tert-butyl)-1-(3-chlorophenyl)-1H-pyrazol-5-yl)-3-(2-(methylthio)-4-((7-oxo-5,6,7,8-tetrahydro-1,8-naphthyridin-4-yl)oxy)phenyl)urea] | < 500 | ≥ 75 |
| CNCC(=O)Nc1cc(Oc2ccc(NC(=O)Nc3cc(C(C)(C)C)nn3-c3ccccc3)c(SC)c2)ccn1 [(bq), N-(4-(4-(3-(3-(tert-butyl)-1-phenyl-1H-pyrazol-5-yl)ureido)-3-(methylthio)phenoxy)pyridin-2-yl)-2-(methylamino)acetamide] | – | ≥ 75 |
| CSc1cc(Oc2ncnc3[nH]c(=O)cnc23)ccc1NC(=O)Nc1cc(C(C)(C)C)nn1-c1ccccc1 [(bv), 1-(3-(tert-butyl)-1-phenyl-1H-pyrazol-5-yl)-3-(2-(methylthio)-4-((7-oxo-7,8-dihydropteridin-4-yl)oxy)phenyl)urea] | ≥ 5000 | ≥ 75 |
| CCOC(=O)Nc1cc(Oc2ccc(NC(=O)Nc3ncc(C(C)(C)C)s3)c(SC)c2)ccn1 [(df), ethyl (4-(4-(3-(5-(tert-butyl)thiazol-2-yl)ureido)-3-(methylthio)phenoxy)pyridin-2-yl)carbamate] | < 500 | ≥ 75 |
| CSc1cc(Oc2ccnc3[nH]c(=O)cnc23)ccc1NC(=O)Nc1cc(C(C)(C)C)nn1CCCN1CCOCC1 [(bh), 1-(3-(tert-butyl)-1-(3-morpholinopropyl)-1 H-pyrazol-5-yl)-3-(2-(methylthio)-4-((3-oxo-3,4-dihydropyrido[2,3-b]pyrazin-8-yl)oxy)phenyl)urea] | ≥ 5000 | ≥ 75 |
| CSc1cc(NC(=O)Nc2cc(C(C)(C)C)nn2-c2ccccc2)ccc1Oc1ccnc2[nH]c(=O)cnc12 [(dn), 1-(3-(tert-butyl)-1-phenyl-1H-pyrazol-5-yl)-3-(3-(methylthio)-4-((3-oxo-3,4-dihydropyrido[2,3-b]pyrazin-8-yl)oxy)phenyl)urea] | 500 to 1000 | ≥ 75 |

Now from value to molecule, other results behind:

| EC50 [nM] | Structure (SMILES) | Emax [%] |
| --- | --- | --- |
| 1000 to 5000 | CC(C)(C)c1cc(NC(=O)Nc2ccc(Oc3ccccc3)cc2F)n(-c2ccccc2)n1 [(ac), 1-(3-(tert-butyl)-1-phenyl-1H-pyrazol-5-yl)-3-(2-fluoro-4-phenoxyphenyl)urea] | 50 to 75 |
| < 500 | CCOC(=O)Nc1cc(Oc2ccc(NC(=O)Nc3cc(C(C)(C)C)nn3-c3ccccc3)c3ccccc23)ccn1 [(da), ethyl (4-((4-(3-(3-(tert-butyl)-1-phenyl-1 H-pyrazol-5-yl)ureido)naphthalen-1-yl)oxy)pyridin-2-yl)carbamate] | ≥ 75 |
| 500 to 1000 | CC(C)(C)c1cc(NC(=O)Nc2ccc(Oc3ccnc4[nH]c(=O)cnc34)c(OC(F)(F)F)c2)n(-c2ccccc2)n1 [(cp), 1-(3-(tert-butyl)-1-phenyl-1H-pyrazol-5-yl)-3-(4-((3-oxo-3,4-dihydropyrido[2,3-b]pyrazin-8-yl)oxy)-3-(trifluoromethoxy)phenyl)urea] | 50 to 75 |
| 1000 to 5000 | CSc1cc(Oc2cccc3[nH]ncc23)ccc1NC(=O)Nc1cc(C(C)(C)C)nn1-c1ccccc1 [(cn), 1-(4-((1H-indazol-4-yl)oxy)-2-(methylthio)phenyl)-3-(3-(tert-butyl)-1-phenyl-1H-pyrazol-5-yl)urea] | 50 to 75 |
| ≥ 5000 | CC(C)(C)c1nnc(NC(=O)Nc2ccc(Oc3ccnc4[nH]c(=O)cnc34)cc2F)s1 [(r), 1-(5-(tert-butyl)-1,3,4-thiadiazol-2-yl)-3-(2-fluoro-4-((3-oxo-3,4-dihydropyrido[2,3-b]pyrazin-8-yl)oxy)phenyl)urea] | ≥ 75 |
| < 500 | CCOC(=O)Nc1cc(Oc2ccc(NC(=O)Nc3cc(C(C)(C)C)nn3-c3ccccc3)c(SC)c2)ccn1 [(cv), ethyl (4-(4-(3-(3-(tert-butyl)-1-phenyl-1H-pyrazol-5-yl)ureido)-3-(methylthio)phenoxy)pyridin-2-yl)carbamate] | ≥ 75 |
| 1000 to 5000 | CNC(=O)c1cc(Oc2ccc(NC(=O)Nc3cc(C(C)(C)C)nn3-c3ccc4ncccc4c3)c3ccccc23)ccn1 [(bf), 4-((4-(3-(3-(tert-butyl)-1-(quinolin-6-yl)-1 H-pyrazol-5-yl)ureido)naphthalen-1-yl)oxy)-N-methylpicolinamide] | ≥ 75 |
| < 500 | CSc1cc(Oc2ccnc3[nH]c(=O)cnc23)ccc1NC(=O)Nc1cc(C(C)(C)C)nn1-c1ccc(C)c(C)c1 [(cd), 1-(3-(tert-butyl)-1-(3,4-dimethylphenyl)-1H-pyrazol-5-yl)-3-(2-(methylthio)-4-((3-oxo-3,4-dihydropyrido[2,3-b]pyrazin-8-yl)oxy)phenyl)urea] | ≥ 75 |
| ≥ 5000 | CSc1cc(Oc2ccnc3[nH]c(=O)cnc23)ccc1NC(=O)Nc1nnc(C(C)(C)C)o1 [(cj), 1-(5-(tert-butyl)-1,3,4-oxadiazol-2-yl)-3-(2-(methylthio)-4-((3-oxo-3,4-dihydropyrido[2,3-b]pyrazin-8-yl)oxy)phenyl)urea] | ≥ 75 |
